Measurements from paper PMC4812144, “Flavonolignans As a Novel Class of Sodium Pump Inhibitors” (Frontiers in Physiology, 2016).

Tests used:
Na+/K+-ATPase (NKA) [1] = target: T1, Na+/K+-ATPase (NKA) (Sus scrofa, UniProt P05024); experiment: Ouabain-sensitive ATPase activity of NKA (Baginsky assay); type: biochemical, porcine; conditions: for IC50: ouabain-sensitive ATPase activity, NKA from porcine kidney, 3 mM ATP, read-out: IC50 for inhibition of the NKA activity; for n, Hill coefficient: fit of NKA inhibition curve to logistic function
T1 construct: The NKA was prepared from porcine kidney outer medulla; from tissue; host or cells: porcine kidney outer medulla
Description: The NKA was prepared from porcine kidney outer medulla using the method of Jorgensen and Klodos with some modifications (Jørgensen, [1988]; Klodos et al., [2002]; Kubala et al., [2014]). An isolated enzyme was pipetted into small aliquots and stored at −20°C in ISE buffer (25 mM imidazole, 250 mM sucrose, 1 mM EDTA, pH 7.4) containing SDS detergent. The molar concentration of isolated NKA was estimated using the Bradford method with consideration of MW(α + β) = 165,000 Da. The protein purity >90% was estimated from SDS-PAGE (Figure 2).
The measurements of NKA activity were performed using the Baginsky assay (Kubala et al., [2014]). The assay was performed in microwell plates in 4 replicates for each point and automated in the pipetting station Freedom EVO (Tecan, Switzerland).
(§1) The reaction buffer was composed of 325 mM NaCl, 50 mM KCl, 7.5 mM MgCl2, and 75 mM imidazole, pH 7.2. In the experiments where the K^+-dependence was estimated, the KCl concentration is ranging from 0 to 100 mM. The NKA (0.1 mg/mL) isolated from porcine kidney was mixed with reaction buffer without ATP. All inhibitors were solubilized in methanol immediately before the measurement and then premixed with the reaction buffer to the required concentration. Subsequently, 10 μL of inhibitor solution was added into 20 μL of enzyme solution and incubated for 2 min. In the control sample, only 10 μL of reaction buffer without inhibitor was added including corresponding amount of methanol. The reaction was started by the addition of ATP solution (20 μL, 7.5 mM in the stock, the final concentration in the reaction was 3 mM). The reaction proceeded for 6 min at room temperature and then was stopped by addition of 75 μL of staining solution, which was composed of 160 mM ascorbic acid, 3.7% (v/v) acetic acid, 3% (w/v) SDS, and 0.5% ammonium molybdate. The staining reaction was stopped after another 8 min by adding 125 μL of solution composed of 0.9% (w/v) bismuth citrate, 0.9% (w/v) sodium citrate and 3.7% HCl.
The Baginsky method detects a product of ATP hydrolysis, inorganic phosphate, which interacts with ammonium molybdate. The reaction results in a color change, which can be monitored as a change of absorbance at 710 nm, and was measured using microplate reader Synergy Mx (BioTek, USA). The calibration line was determined using KH2PO4 solutions, in […] concentration range.
(§2) The specific NKA activity is standardly estimated using the treatment by ouabain, which serves as a specific inhibitor of NKA. The ATPase activity decreases to less than 10% in the presence of 10 mM ouabain. This residual activity in the presence of ouabain was subtracted from the total estimated ATPase activity in ouabain-untreated samples, and all data are presented as the ouabain-sensitive ATPase activity. The IC50 values were obtained from fitting the data to the logistic function.

[2] = Solubility (qualitative remarks); type: physicochemical; conditions: NKA activity assay
Na+/K+-ATPase (NKA) [3] = target: T1, Na+/K+-ATPase (NKA); experiment: K+/ouabain antagonism: ouabain inhibition of NKA activity with or without flavonolignan; type: biochemical, porcine; conditions: for K0.5(ouabain): in the presence of 40 μM flavonolignan; for IC50: K0.5(ouabain), no flavonolignan (row None)
Description: as §1, §2
(§3) We have tested influence of these three species on the ouabain inhibition and K^+-dependence of NKA activation. None of the species substantially influenced the IC50 for ouabain or the K^+/ouabain antagonism (Figure 5). The NKA activity is K^+-dependent and it increased with increasing concentration of potassium with K0.5(K^+) = 4.2 ± 0.6 mM.

Na+/K+-ATPase (NKA) [4] = target: T1, Na+/K+-ATPase (NKA); experiment: K+-dependence of NKA activity (K+-dependent activation); type: biochemical, porcine
Description: as §1, §3

[5] = target: T2, large cytoplasmic segment C45 of NKA (C45 loop, residues L354-I777) (Mus musculus, UniProt Q8VDN2); experiment: Fluorescence spectroscopy of interaction with isolated large cytoplasmic segment C45; type: binding; conditions: 5 μM species; for Fluorescence intensity increase in the presence of C45: 5 μM C45, pH 7.4, excitation 380 nm
T2 construct: (His)6-tag (N); made in house; host or cells: E. coli BL21
Description: The large cytoplasmic segment connecting the transmembrane helices 4 and 5 (C45 loop, residues L354-I777 of the mouse brain sequence) with a (His)6-tag at the N-terminus was expressed in E. coli BL21 (Promega, USA) and purified using a Co^2+-based affinity resin (Clontech, USA) as described previously (Grycova et al., [2009]). Immediately after elution, the protein was dialyzed into 20 mM Tris, 140 mM NaCl, pH 7.4 buffer and stored at −20°C.
Spectroscopic experiments were performed in 20 mM Tris, 140 mM NaCl, pH 7.4 buffer. SCH, DHSCH and DHSD as well as protein C45 were diluted to 5 μM concentration.
Fluorescence emission spectra were measured using Fluorolog-3 (Horiba Scientific, USA). The spectra were scanned with a step of 1 nm, both excitation- and emission bandpass 5 nm and integration time 1 s. For SCH, the excitation was 325 nm and emission was recorded in the 340–600 nm interval, for DHSCH and DHSD, the excitation wavelength was 380 nm and spectra were scanned in the 400–600 nm interval. Signal from pure buffer was subtracted as a background.

[6] = 40 mM KCl (value in parentheses)
[7] = in the presence of 40 μM flavonolignan

SMILES	IC50 (Na+/K+-ATPase (NKA) [1]) [µM]	Solubility limiting the examined concentration range [2]	n, Hill coefficient (Na+/K+-ATPase (NKA) [1])	K0.5(ouabain) (Na+/K+-ATPase (NKA) [3]; 5 mM KCl) [µM]	K0.5(ouabain) (Na+/K+-ATPase (NKA) [3]; [6]) [µM]	K0.5(K+) for K+-dependent activation of NKA (Na+/K+-ATPase (NKA) [4]; [7]) [mM]	further results
O=C1c2c(O)cc(O)cc2OC(c2ccc(O)c(O)c2)C1O (centres unmarked) [TAX, taxifolin]	> 1000						
COc1cc(C2Oc3cc(-c4oc5cc(O)cc(O)c5c(=O)c4O)ccc3OC2CO)ccc1O (centres unmarked) [DHSB]	900 ± 800	lower solubility	0.5 ± 0.1				
COc1cc([C@@H]2[C@H]3CO[C@@]4(O)C(=O)[C@@H]2C=C([C@H]2Oc5cc(O)cc(O)c5C(=O)[C@@H]2O)[C@@H]34)ccc1O [SD, silydianin]	> 1000	lower solubility					
O=c1c(O)c(-c2ccc(O)c(O)c2)oc2cc(O)cc(O)c12 [QUE, quercetin]	> 1000						
COc1cc(C2C3C=C(c4oc5cc(O)cc(O)c5c(=O)c4O)C4C2COC4(O)C3=O)ccc1O (centres unmarked) [DHSD, dehydrosilydianin]	36 ± 14	lower solubility	0.6 ± 0.1	3.3 ± 1.4	19 ± 7	3 ± 2	Fluorescence intensity increase in the presence of C45 [5]: three-fold
C[C@@H]1O[C@@H](O[C@H]2C[C@@H](O)[C@]3(CO)[C@H]4[C@H](O)C[C@]5(C)[C@@H](C6=CC(=O)OC6)CC[C@]5(O)[C@@H]4CC[C@]3(O)C2)[C@H](O)[C@H](O)[C@H]1O [ouabain, reference compound]							remaining activity at 10000 µM (Na+/K+-ATPase (NKA) [1]; read-out: ATPase activity remaining in the presence of ouabain): < 10%; IC50 (Na+/K+-ATPase (NKA) [3]; 5 mM KCl): 2.6 ± 1.3 µM; IC50 (Na+/K+-ATPase (NKA) [3]; [6]): 23 µM; K0.5(K+) for K+-dependent activation of NKA (Na+/K+-ATPase (NKA) [4]; in the presence of ouabain): 14.8 ± 0.1 mM

Second part, led by results:

IC50 (Na+/K+-ATPase (NKA) [1]) [µM]	Solubility limiting the examined concentration range [2]	n, Hill coefficient (Na+/K+-ATPase (NKA) [1])	K0.5(ouabain) (Na+/K+-ATPase (NKA) [3]; 5 mM KCl) [µM]	K0.5(ouabain) (Na+/K+-ATPase (NKA) [3]; [6]) [µM]	K0.5(K+) for K+-dependent activation of NKA (Na+/K+-ATPase (NKA) [4]; [7]) [mM]	SMILES	further results
> 1000	lower solubility					COc1cc(C2Oc3cc([C@H]4Oc5cc(O)cc(O)c5C(=O)[C@@H]4O)ccc3OC2CO)ccc1O (some centres unmarked) [SB, silybin]	
38 ± 8		0.8 ± 0.1	1.5 ± 0.5	24 ± 6	4 ± 1	COc1cc(C2Oc3c(O)cc(-c4oc5cc(O)cc(O)c5c(=O)c4O)cc3C2CO)ccc1O (centres unmarked) [DHSCH, dehydrosilychristin]	Fluorescence intensity increase in the presence of C45 [5]: ca. 3 times
110 ± 40		0.6 ± 0.1	4.0 ± 1.7	18 ± 2	8 ± 5	COc1cc(C2Oc3c(O)cc([C@H]4Oc5cc(O)cc(O)c5C(=O)[C@@H]4O)cc3C2CO)ccc1O (some centres unmarked) [SCH, silychristin]	Fluorescence quantum yield increase in the presence of C45 compared to the free species ([5]; 5 μM C45, pH 7.4): more than 1000 times
